Measured values: patent US12441718B2, “Selective angiotensin II compounds” (VICORE PHARMA AB, priority 2021, dated 2025)
pIC50, pKi: −log10 of the molar value. Where “and” joins values, the source holds several entries; their conditions need not be identical. Equal entries are not always repeated. Where two headings read alike, the source gives them in different places.

What was measured:
[1] = Metabolic stability in pooled human liver microsomes; assay type: in vitro ADME; conditions: pooled human liver microsomes 0.5 mg/mL, 1 μM test compound, 37° C., * rows = mean of two runs; for half-life at 1 μM: human, pooled human liver microsomes
Procedure: Pooled human liver microsomes in PBS at a concentration of 0.5 mg/mL was incubated with or without 1 mM NADPH for 70 min at 37° C. Test compound was added after 10 minutes to a final concentration of 1 μM. Samples were withdrawn at 0, 5, 15 and 60 minutes and added to test tubes containing acetonitrile, to stop the reaction, and with terfenadine, used as internal standard. After centrifugation at 10 000×g for 5 minutes the supernatant was diluted 1:1 with 1% formic acid. Samples were separated on a reverse phase column and detected by triple quadrupole MSMS (Agilant model 6540). The concentration of the parent compound at the different time points was measured with an external standard curve using terfenadine as internal standard and the initial metabolic rate in the presence or absence of NADPH calculated.

[2] = molecular target: T1, human recombinant AT2 receptor (Homo sapiens, UniProt P50052); test: Binding to AT2 receptor, radiometric scintillation assay (Eurofins ITEM26); conditions: for pKi: seven-point dose-response curve
T1 construct: purchased Eurofins ITEM26 (protocol number)
T1 sequence (P50052 1-363): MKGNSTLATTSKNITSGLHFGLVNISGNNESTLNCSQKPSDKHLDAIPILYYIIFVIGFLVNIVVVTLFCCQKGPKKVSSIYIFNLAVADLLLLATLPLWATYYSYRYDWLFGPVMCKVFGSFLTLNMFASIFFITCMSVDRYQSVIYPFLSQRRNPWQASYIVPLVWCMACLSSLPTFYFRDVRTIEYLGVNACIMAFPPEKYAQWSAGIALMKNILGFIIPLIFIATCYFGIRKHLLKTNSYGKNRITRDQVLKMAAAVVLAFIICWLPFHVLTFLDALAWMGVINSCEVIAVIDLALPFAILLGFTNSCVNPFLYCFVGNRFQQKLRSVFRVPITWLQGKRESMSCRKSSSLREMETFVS

[3] = with 1 mM NADPH, read-out: T1/2, + NaDPH
[4] = without NADPH, read-out: T1/2, no NaDPH
[5] = ligand 125I CGP 42112A, * rows = mean of runs
[6] = test compounds at 1, 10, 100 and 1000 nM, ligand 125I CGP 42112A, * rows = mean of runs, read-out: AT2 GraFit IC50

| half-life at 1 μM [1, 3] [h] | half-life at 1 μM [1, 4] [h] | pKi [2, 5] | pIC50 [2, 6] | T1/2, + NaDPH ([1]; with 1 mM NADPH) [h] | T1/2, + NaDPH ([1]; with 1 mM NADPH, listed as Example 31*) [h] | T1/2, + NaDPH ([1]; with 1 mM NADPH, listed as Example 33*) [h] | T1/2, + NaDPH ([1]; with 1 mM NADPH, listed as Example 34*) [h] | pIC50 ([2]; AT2 GraFit IC50, value in parentheses after <0.3, value printed in parentheses behind the bound <0.3) | SMILES |
| --- | --- | --- | --- | --- | --- | --- | --- | --- | --- |
| > 1 | > 1 |  |  |  |  |  |  |  | CC(C)Cc1cc(-c2ccc(Cn3ccnc3C(C)(C)C)cc2)c(S(=O)(=O)Nc2ncccn2)s1 [Example 16, 3-(4-((2-(tert-Butyl)-1H-imidazol-1-yl)methyl)phenyl)-5-isobutyl-N-(pyrimidin-2-yl)thiophene-2-sulfonamide] |
| > 1 | > 1 | 9.24 | 8.94 |  |  |  |  |  | Cc1nccn1Cc1ccc(-c2cc(CC(C)C)ccc2S(=O)(=O)Nc2ncccn2)cc1 [Example 37, 5-Isobutyl-4′-((2-methyl-1H-imidazol-1-yl)methyl)-N-(pyrimidin-2-yl)-[1,1′-biphenyl]-2-sulfonamide] |
| > 1 | > 1 |  |  |  |  |  |  |  | CC(C)Cc1ccc(S(=O)(=O)Nc2ncccn2)c(-c2ccc(Cn3ccnc3C3CC3)cc2)c1 [Example 41, 4′-((2-Cyclopropyl-1H-imidazol-1-yl)methyl)-5-isobutyl-N-(pyrimidin-2-yl)-[1,1′-biphenyl]-2-sulfonamide] |
| > 1 | > 1 |  |  |  |  |  |  |  | CC(C)Cc1ccc(S(=O)(=O)Nc2ncccn2)c(-c2ccc(Cn3ccnc3C3CC3)c(F)c2)c1 [Example 42, 4′-((2-Cyclopropyl-1H-imidazol-1-yl)methyl)-3′-fluoro-5-isobutyl-N-(pyrimidin-2-yl)-[1,1′-biphenyl]-2-sulfonamide] |
| > 1 | > 1 | 9.11 | 8.82 |  |  |  |  |  | CC(C)Cc1cc(-c2ccc(Cn3ccnc3C3CC3)cc2)c(S(=O)(=O)Nc2ncccn2)s1 [Example 52, 3-(4-((2-Cyclopropyl-1H-imidazol-1-yl)methyl)phenyl)-5-isobutyl-N-(pyrimidin-2-yl)thiophene-2-sulfonamide] |

Second part, the compound before the results:

| SMILES | half-life at 1 μM [1, 3] [h] | half-life at 1 μM [1, 4] [h] | pKi [2, 5] | pIC50 [2, 6] | T1/2, + NaDPH ([1]; with 1 mM NADPH) [h] | T1/2, + NaDPH ([1]; with 1 mM NADPH, listed as Example 31*) [h] | T1/2, + NaDPH ([1]; with 1 mM NADPH, listed as Example 33*) [h] | T1/2, + NaDPH ([1]; with 1 mM NADPH, listed as Example 34*) [h] | pIC50 ([2]; AT2 GraFit IC50, value in parentheses after <0.3, value printed in parentheses behind the bound <0.3) |
| --- | --- | --- | --- | --- | --- | --- | --- | --- | --- |
| CC(C)Cc1ccc(S(=O)(=O)Nc2ncccn2)c(-c2ccc(Cn3ccnc3C(C)(C)O)cc2)c1 [Example 15, 4′-((2-(2-Hydroxypropan-2-yl)-1H-imidazol-1-yl)methyl)-5-isobutyl-N-(pyrimidin-2-yl)-[1,1′-biphenyl]-2-sulfonamide] | > 1 | > 1 |  |  |  |  |  |  |  |
| CC(C)Cc1ccc(S(=O)(=O)Nc2ncccn2)c(-c2ccc(Cn3ccnc3C(C)(C)C)cc2)c1 [Example 17, 4′-((2-(tert-Butyl)-1H-imidazol-1-yl)methyl)-5-isobutyl-N-(pyrimidin-2-yl)-[1,1′-biphenyl]-2-sulfonamide] | > 1 | > 1 |  |  |  |  |  |  |  |
| COc1cnc(NS(=O)(=O)c2ccc(CC(C)C)cc2-c2ccc(Cn3ccnc3C(C)(C)C)c(F)c2)nc1 [Example 31, 4′-((2-(tert-Butyl)-1H-imidazol-1-yl)methyl)-3′-fluoro-5-isobutyl-N-(5-methoxy-pyrimidin-2-yl)-[1,1′-biphenyl]-2-sulfonamide] | 0.783 | > 1 | 8.92 and 8.74 and 8.82 | 8.61 and 8.43 and 8.51 | 0.583 | 0.683 |  |  |  |
| CC(C)Cc1ccc(S(=O)(=O)Nc2ccsn2)c(-c2ccc(Cn3ccnc3C(C)(C)C)cc2)c1 [Example 33, 4′-((2-(tert-Butyl)-1H-imidazol-1-yl)methyl)-5-isobutyl-N-(isothiazol-3-yl)-[1,1′-biphenyl]-2-sulfonamide] | 0.2 | > 1 | 8.95 and 8.14 and 8.38 | 8.65 and 7.84 and 8.08 | 0.217 |  | 0.208 |  |  |
| COc1cc(NS(=O)(=O)c2ccc(CC(C)C)cc2-c2ccc(Cn3ccnc3C(C)(C)C)cc2)nc(OC)n1 [Example 34, 4′-((2-(tert-Butyl)-1H-imidazol-1-yl)methyl)-N-(2,6-dimethoxypyrimidin-4-yl)-5-isobutyl-[1,1′-biphenyl]-2-sulfonamide] | 0.283 | > 1 | 7.42 and 7.61 and 7.50 | 7.12 and 7.31 and 7.20 | 0.183 |  |  | 0.233 |  |
| COc1cnc(NS(=O)(=O)c2ccc(CC(C)C)cc2-c2ccc(Cn3ccnc3C(C)(C)C)cc2)nc1 [Example 36, 4′-((2-(tert-Butyl)-1H-imidazol-1-yl)methyl)-5-isobutyl-N-(5-methoxypyrimidin-2-yl)-[1,1′-biphenyl]-2-sulfonamide] | 0.7 | > 1 | 8.22 | 7.92 |  |  |  |  |  |
| CC(C)Cc1ccc(S(=O)(=O)Nc2ncccn2)c(-c2ccc(Cn3ccnc3)cc2)c1 [Example 38, 4′-((1H-Imidazol-1-yl)methyl)-5-isobutyl-N-(pyrimidin-2-yl)-[1,1′-biphenyl]-2-sulfonamide] | 0.967 | > 1 | 8.86 | 8.56 |  |  |  |  |  |
| CC(C)Cc1ccc(S(=O)(=O)Nc2ncccn2)c(-c2ccc(Cn3ccnc3C(C)C)cc2)c1 [Example 39, 5-Isobutyl-4′-((2-isopropyl-1H-imidazol-1-yl)methyl)-N-(pyrimidin-2-yl)-[1,1′-biphenyl]-2-sulfonamide] | 0.95 | > 1 |  |  |  |  |  |  |  |
| CCc1nccn1Cc1ccc(-c2cc(CC(C)C)ccc2S(=O)(=O)Nc2ncccn2)cc1 [Example 40, 4′-((2-Ethyl-1H-imidazol-1-yl)methyl)-5-isobutyl-N-(pyrimidin-2-yl)-[1,1′-biphenyl]-2-sulfonamide] | 0.75 | > 1 |  |  |  |  |  |  |  |
| CC(C)Cc1cc(-c2ccc(Cn3ccnc3C(C)(C)C)c(F)c2)c(S(=O)(=O)Nc2ncccn2)s1 [Example 43, 3-(4-((2-(tert-Butyl)-1H-imidazol-1-yl)methyl)-3-fluorophenyl)-5-isobutyl-N-(pyrimidin-2-yl)thiophene-2-sulfonamide] | > 1 | > 1 | 9.52 | 9.22 |  |  |  |  |  |
| CC(C)Cc1cc(-c2ccc(Cn3ccnc3C(C)C)c(F)c2)c(S(=O)(=O)Nc2ncccn2)s1 [Example 46, 3-(3-Fluoro-4-((2-isopropyl-1H-imidazol-1-yl)methyl)phenyl)-5-isobutyl-N-(pyrimidin-2-yl)thiophene-2-sulfonamide] | > 1 | > 1 | 9.48 | 9.19 |  |  |  |  |  |
| CC(C)Cc1cc(-c2ccc(Cn3ccnc3)c(F)c2)c(S(=O)(=O)Nc2ncccn2)s1 [Example 48, 3-(4-((1H-Imidazol-1-yl)methyl)-3-fluorophenyl)-5-isobutyl-N-(pyrimidin-2-yl)thiophene-2-sulfonamide] | > 1 | > 1 |  |  |  |  |  |  |  |
| Cc1nccn1Cc1ccc(-c2cc(CC(C)C)ccc2S(=O)(=O)Nc2ncccn2)cc1F [Example 53, Potassium ((3′-fluoro-5-isobutyl-4′-((2-methyl-1H-imidazol-1-yl)methyl)-[1,1′-biphenyl]-2-yl)sulfonyl)(pyrimidin-2-yl)amide] |  |  |  | > 9.52 |  |  |  |  | 9.60 |
